From the supplement of paper PMC6965134
± gives the standard deviation of the averaged measurements.

Assay: TIMS collisional cross section (CCS, N2) of the lipid ion; higher = larger ion cross section
Settings: ionization mode: positive, one isomer drawn

Structure (SMILES)	TIMS collisional cross section (sample type: HeLa) [Å²]	TIMS collisional cross section (sample type: plasma) [Å²]	TIMS collisional cross section (sample type: Liver) [Å²]
CCCCCCCC/C=C\CCCCCCCC(=O)OC[C@H](COC(=O)CCCCCCCCCCCCCCCCCCCC)OC(=O)CCCCCCCCCCCCCCCCCCC [TG 18:1_20:0_21:0] (ion (formula + adduct): [C62H118O6+NH4] 1+)	344.2	–	–
CCCCCCCCCCCCCCCCCC(=O)OC[C@@H](O)COP(=O)(O)OCCN [LPE 18:0] (ion (formula + adduct): [C23H48NO7P+H] 1+)	–	221.8	–
CCCCC/C=C\C/C=C\C/C=C\C/C=C\CCCC(=O)O[C@H](CO/C=C\CCCCCCCCCCCCCCCCCC)COP(=O)(O)OCCN [PE P- 20:0@_20:4] (ion (formula + adduct): [C45H82NO7P+H] 1+)	–	–	288.7
CCCCC/C=C\C/C=C\C/C=C\C/C=C\CCCC(=O)O[C@@H](CO)COC(=O)CCCCCCCCCCCCCCC [DG 16:0_20:4_0:0] (ion (formula + adduct): [C39H68O5+H] 1+)	–	–	263.9
CC/C=C\C/C=C\C/C=C\C/C=C\C/C=C\CCCC(=O)OC[C@@H](COC(=O)CCCCCCCCCCCCCCC)OC(=O)CCCCCCC/C=C\C/C=C\CCCCC [TG 16:0_18:2_20:5] (ion (formula + adduct): [C57H96O6+NH4] 1+)	–	319.9	318.1
CCCCCCCC/C=C\CCCCCCCC(=O)OC[C@@H](COC(=O)CCCCCCCCCCCCCCCCC)OC(=O)CCCCCCC/C=C\CCCCCCCC [TG 18:0_18:1_18:1] (ion (formula + adduct): [C57H106O6+NH4] 1+)	–	328.45 ± 0.49	–
CCCC/C=C\CCCCCCCC(=O)OC[C@H](COC(=O)CCCCCCC/C=C\CCCCCC)OC(=O)CCCCCCC/C=C\CCCC [TG 14:1_14:1_16:1] (ion (formula + adduct): [C47H84O6+NH4] 1+)	294.6	–	291.2
CCCCC/C=C\C/C=C\CCCCCCCC(=O)O[C@H](CO)COP(=O)(O)OCCN [LPE 18:2] (ion (formula + adduct): [C23H44NO7P+H] 1+)	–	211.2 ± 0.85	–
CC/C=C\C/C=C\C/C=C\C/C=C\C/C=C\CCCC(=O)O[C@H](COC(=O)CCCCCCCCCCCCCCC)COP(=O)([O-])OCC[N+](C)(C)C [PC 16:0_20:5] (ion (formula + adduct): [C44H78NO8P+H] 1+)	–	–	285.7
CCCCCCCCCCCCCCCCCC(=O)O[C@H](COC(=O)CCCCCCC)COP(=O)([O-])OCC[N+](C)(C)C [PC 8:0_18:0@] (ion (formula + adduct): [C34H68NO8P+H] 1+)	–	–	265.4
CCCCC/C=C\C/C=C\C/C=C\C/C=C\CCCCCC(=O)O[C@H](COCCCCCCCCCCCCCCCCCC)COP(=O)([O-])OCC[N+](C)(C)C [PC O- 18:0@_22:4] (ion (formula + adduct): [C48H90NO7P+H] 1+)	301.9	–	–
CC/C=C\C/C=C\C/C=C\C/C=C\C/C=C\C/C=C\CCC(=O)O[C@H](COC(=O)CCCCCCCCCCCCCCCCC)COP(=O)([O-])OCC[N+](C)(C)C [PC 18:0_22:6] (ion (formula + adduct): [C48H84NO8P+H] 1+)	–	–	297.9
CCCCC/C=C\C/C=C\C/C=C\C/C=C\CCCC(=O)O[C@H](COCCCCCCCCCCCCCCCCCC)COP(=O)(O)OCCN [PE O- 18:0@_20:4] (ion (formula + adduct): [C43H80NO7P+H] 1+)	–	–	284
CCCCCCCCCCCCCCCCOC[C@@H](O)COP(=O)([O-])OCC[N+](C)(C)C [LPC O- 16:0] (ion (formula + adduct): [C24H52NO6P+H] 1+)	230.5	230.6	–
